Values quoted from earlier work, collected in patent US20130143970A1, “MEDICINAL PREPARATION PARTICULARLY FOR THE TREATMENT OF SLIPPED DISCS HERNIAS” (priority 2002, published 2013).

Details: intradiscal injections

Question: With `CCO` [absolute alcohol, ethanol] as the molecule, how does the “treatment results in lumbar discal hernias” value read?
Answer: very promising results
